According to US20070134744A1, “Epothilone resistant cell lines” (priority 2000, published 2007):

Columns and labels:
[1] = target: T1, tubulin in 297/C5/0 cells (Homo sapiens, UniProt P07437, T274P); experiment: Cell-based tubulin polymerization assay; conditions: 2 hours, 0-1000 nM, vs KB-31
T1 construct: endogenous in cells; host or cells: 297/C5/0 and 298/D4/40 sublines of KB-31 (intact cells or hypotonic lysates)
Method: (§1) Drug-induced changes in the ratios between unpolymerized and polymerized tubulin in intact and lysed cells, respectively, are assessed basically as described (Giannakakou et al, Int. J. Cancer 75: 57-63 (1998)). Briefly, for the assessment of cellular drug effects, 2×10^5 cells are seeded in a volume of 1 ml to maximally 6 wells per 24-well plate. After incubation for 18-24 hrs at 37° C. to allow for cell attachment, test substances are added to the cell culture medium to achieve the desired concentrations, followed by incubation of the cells for 2 hrs at 37° C. Final vehicle concentration is 1%. One plate at a time is then transferred to a dimmed tissue-culture hood and cells are washed twice with 1 ml of room-temperature phosphate-buffered saline lacking Ca^++ and Mg^++ (PBS/O). After careful removal of remaining PBS/O, 100 μl of room-temperature Hypotonic Lysis Buffer A (HLB/A: 20 mM Tris-HCl (pH 6.8), 1 mM Mg2Cl, 2 mM EGTA, 2 mM Pefabloc, 1 mM benzamidine, 10 μg/ml aprotinin, 10 μg/ml leupeptin, 0.5% Nonidet P-40) is added and plates are wrapped in aluminum foil to minimize artifacts due to light-driven tubulin polymerization. Following incubation for exactly 5 min at 37° C., cells are harvested by scraping and transferred to a room-temperature eppendorf tube. Harvested wells are washed once with 100 μl room temperature HLB/A and pooled with the corresponding initial samples. Tubes are vortexed for 5 seconds to aid cell lysis, followed by centrifugation for 10 min at room-temperature in a table-top centrifuge at 12′000×g to separate microtubules (pellet) from unpolymerized tubulin (supernatant). The supernatant is then carefully transferred to a fresh eppendorf tube and stored on ice until further processed. Meanwhile, the pelleted material is resuspended in 200 μl room-temperature Resuspension Buffer (RSB: 10 mM Tris-HCl (pH 7.5), 1.5 mM Mg2Cl, 2 mM EGTA, 1 mM Pefabloc, 1 mM benzamidine, 10 μg/ml aprotinin, 10 μg/ml leupeptin, 0.5% Nonidet P-40). Solubilization of the pellet is aided by placing the eppendorf tube for 30 seconds in a sonicator waterbath. […]

[2] = target: T2, tubulin in KB-31 cells (Homo sapiens, UniProt P07437); experiment: Cell-based tubulin polymerization assay; conditions: 2 hours, 0-1000 nM
T2 construct: decrease in the unpolymerized pool of tubulin in KB-31 cell lysates; endogenous in cells; host or cells: KB-31 human epidermoid carcinoma cells (intact cells or hypotonic lysates)
T2 sequence (P68363 whole entry): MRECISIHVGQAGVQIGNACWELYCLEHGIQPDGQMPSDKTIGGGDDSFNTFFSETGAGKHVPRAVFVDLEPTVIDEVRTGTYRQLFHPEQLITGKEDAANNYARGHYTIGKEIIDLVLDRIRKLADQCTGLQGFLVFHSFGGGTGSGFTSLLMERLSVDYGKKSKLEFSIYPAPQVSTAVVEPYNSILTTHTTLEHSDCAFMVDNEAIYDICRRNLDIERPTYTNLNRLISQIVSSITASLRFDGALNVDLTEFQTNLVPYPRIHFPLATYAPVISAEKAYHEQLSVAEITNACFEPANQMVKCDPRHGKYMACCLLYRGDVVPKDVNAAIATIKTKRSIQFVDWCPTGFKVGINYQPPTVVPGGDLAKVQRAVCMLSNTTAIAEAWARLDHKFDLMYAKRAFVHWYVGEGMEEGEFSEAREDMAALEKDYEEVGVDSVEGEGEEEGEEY
T2 sequence (P07437 whole entry): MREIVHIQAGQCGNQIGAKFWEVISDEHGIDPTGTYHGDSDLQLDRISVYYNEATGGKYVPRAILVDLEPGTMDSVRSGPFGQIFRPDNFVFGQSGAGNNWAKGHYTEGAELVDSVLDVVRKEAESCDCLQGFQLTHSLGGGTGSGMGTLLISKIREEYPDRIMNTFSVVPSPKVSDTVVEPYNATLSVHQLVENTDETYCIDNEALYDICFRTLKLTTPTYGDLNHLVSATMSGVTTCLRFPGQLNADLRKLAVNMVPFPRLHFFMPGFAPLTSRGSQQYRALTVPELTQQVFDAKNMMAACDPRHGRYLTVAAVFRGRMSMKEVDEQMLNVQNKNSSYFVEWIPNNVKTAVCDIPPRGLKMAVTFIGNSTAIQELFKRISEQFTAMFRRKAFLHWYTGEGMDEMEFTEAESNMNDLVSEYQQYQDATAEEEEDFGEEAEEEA
Method: as §1

[3] = target: T3, tubulin in 298/D4/40 cells (Homo sapiens, UniProt P07437, T274P); experiment: Cell-based tubulin polymerization assay; conditions: 2 hours, up to 1000 nM
T3 construct: endogenous in cells; host or cells: 297/C5/0 and 298/D4/40 sublines of KB-31 (intact cells or hypotonic lysates)
T3 sequence (P07437 whole entry T274P): as the sequence (P07437 whole entry) above, with T274P counted along it
T3 sequence (P68363 whole entry partner): as the sequence (P68363 whole entry) above
Method: as §1

[4] = system: KB-8511 cells; format: cell-based, human
Method: Data in Table 4 are gathered according to the following methods: Cells (1×10^3) are seeded in 96-well plates and allowed to adhere for 24 hrs. Compounds are then added as two-fold serial dilutions and incubation continued for an additional 72 hrs. Cell numbers at the beginning and at the end of the experiment are estimated by methylene blue staining of cellular protein mass according to conventional methods. The net mass increase of vehicle-treated cells is set as 100% growth. The IC50 is determined as the drug concentration that leads to half-maximal growth inhibition compared to the control. The resistance factor (RF) for a particular drug is calculated by dividing the IC50 determined on the resistant cell line by that determined on the parental KB-31 cells. Data are presented as average±standard deviation (SD) of three separate experiments, except na=not applicable (n<3). Colchicine-selected KB-8511 cells overexpressing P-glycoprotein served as a reference for the classical multi-drug-resistant phenotype.

[5] = target: T4, tubulin in 297/C5/0 cell lysates (Homo sapiens, UniProt P07437, T274P); experiment: Cell-free tubulin polymerization assay; format: biochemical; conditions: 297/C5/0 lysates, 5 min 37° C., 0-100 μM, vs KB-31
T4 construct: endogenous in cells; host or cells: 297/C5/0 and 298/D4/40 sublines of KB-31 (intact cells or hypotonic lysates)
T4 sequence (P07437 whole entry T274P): as the sequence (P07437 whole entry) above, with T274P counted along it
T4 sequence (P68363 whole entry partner): as the sequence (P68363 whole entry) above
Method: For the assessment of drug effects on the ratio between unpolymerized and polymerized tubulin in a cell-free system, cells are lysed at the time of drug addition and processed as follows. Cells are seeded and incubated for 18-24 hrs as described above. One plate at a time is then transferred to a dimmed tissue-culture hood and cells are washed twice with 1 ml of room temperature PBS/O. After careful removal of remaining PBS/O, 200 μl of room-temperature HLB/A containing test substances at the desired concentration is added to the cells. Final vehicle concentration is 1%. The plates are wrapped in aluminum foil and incubated for 5 min at 37° C. Lysates are then transferred to eppendorf tubes, vortexed for 5 seconds, followed by centrifugation for 30 minutes at room-temperature in a table-top centrifuge at 12′000×g. Further processing of the samples is performed as described above.
However, it was not clear from this experiment whether the decrease in epothilone A-mediated tubulin polymerization is due to decreased drug uptake or a genuine defect in tubulin functionality. To address this question, cells are lysed before incubation with epothilone A. Specifically, KB-31, 297/C5/0 and 298/D4/40 cells (2×10^5) are separately seeded in 6-well plates and allowed to adhere for 24 hrs. Cells are then lysed in hypotonic buffer containing 0, 1, 10 or 100 μM epothilone A. Vehicle (DMSO) concentration was 1%. Following incubation for 5 min at 37° C., samples are centrifuged to separate soluble from polymerized tubulin and the levels of unpolymerized tubulin is assessed by Western blotting as described above.

T1 sequence (P07437 whole entry T274P): as the sequence (P07437 whole entry) above, with T274P counted along it
T1 sequence (P68363 whole entry partner): as the sequence (P68363 whole entry) above

C/C(=C\c1csc(C)n1)[C@@H]1C[C@@H]2O[C@@H]2CCC[C@H](C)[C@H](O)[C@@H](C)C(=O)C(C)(C)[C@@H](O)CC(=O)O1 [Epothilone A, epothilone A]
drug concentrations required to decrease the unpolymerized tubulin fraction [1]: significantly higher | unpolymerized tubulin in intact cells [2]: dose-dependent decrease in the unpolymerized pool of tubulin | epothilone A-mediated tubulin polymerization [3]: completely refractory | RF (resistance factor: IC50 resistant cell line / IC50 parental KB-31) ([4]; KB-8511 (Colch selected), 72 hrs, average of three experiments): 0.7 | resistance profile in words ([4]; KB-8511 vs parental KB-31): retain full activity | dose-response curve for unpolymerized tubulin in cell lysates [5]: shifted to higher concentrations
